Results reported in publication PMC4949440 (Scientific Reports, 2016).
Read-outs that look alike come from different tables or passages of the source.

Experiments:
HL-60 cells [1] = test: cells; type: cell-based, human
MCF-7 cells = test: cells; type: cell-based; conditions: read-out: IC50 MCF-7
SGC7901 cells = test: cells; type: cell-based; conditions: read-out: IC50 SGC7901
GES-1 cells = test: cells; type: cell-based; conditions: read-out: IC50 GES-1
HEK293 cells = test: cells; type: cell-based
NIH3T3 cells = test: cells; type: cell-based
HL-60 cells [2] = type: cell-based, human; conditions: for apoptosis rate (FITC+/PI− and FITC+/PI+): control 2.9%
HL-60 cells [3] = test: Hoechst 33342 staining, morphology; type: cell-based, human; conditions: 2a (1 μM and 2 μM) or 2b (0.75 μM and 1.5 μM), 24 h
Experimental: HL-60 cells treated with 2a (1 μM and 2 μM) or 2b (0.75 μM and 1.5 μM) were plated in 12-well plates, and the medium was removed after 24 h, followed by the addition of 5 μg.mL^−1 Hoechst 33342. After being incubated for 30 min in dark at 37 °C, the samples were visualized and photographed using a C1-si Laser Scanning Confocal Microscope (Nikon, Japan)[27].

HL-60 cells [4] = test: Intracellular ROS level (DCFH-DA); type: cell-based, human; conditions: 2 μM 2a or 1.5 μM 2b, 24 h
Experimental: HL-60 cells treated with 2 μM 2a or 1.5 μM 2b were plated in 12-well plates. After 24 h, each sample of cells was collected and washed once with PBS. The cells were incubated with 300 μL FBS-free medium containing DCFH-DA (1 μM) for 30 min in dark at 37 °C. Data were obtained and analyzed using a C6 flow cytometer (BD Biosciences, USA)[27].
In laser scanning confocal experiment, the medium was removed after 24 h incubation. 1 mL FBS-free medium with DCFH-DA (10 μM) was added to each sample. Then continue the incubation for 30 min in dark at 37 °C. The samples were visualized and photographed using a C1-si Laser Scanning Confocal Microscope (Nikon, Japan).
(§1) In protective trial, the cells were pre-incubated with the protective agents for 4 h and other operations were in accordance with the above.

HL-60 cells [5] = test: Total glutathione and GSH/GSSG level; type: cell-based, human; conditions: 2 μM 2a or 1.5 μM 2b; for ratio of GSH/GSSG: with or without 0.075 mM LA
Experimental: The cells were cultured in a 6-well plate and treated with 2 μM 2a or 1.5 μM 2b. After 24 h, the cells were collected and washed twice with PBS. The protein content was quantified by the use of Bradford procedure. Then each sample was treated according to the manufacturer’s instructions (beyotime, Shanghai, China). The absorbance was measured every 5 minutes at 405 nm with microplate reader.
as §1

HL-60 cells [6] = test: Mitochondrial membrane potential (JC-1 or Rh123, flow cytometry); type: cell-based, human
Experimental: HL-60 cells treated with 2a (1.5 μM and 3 μM) or 2b (1 μM and 2 μM) were plated in 12-well plates. After 24 h, cells were collected and washed once with PBS. Then, the cells were handled with JC-1 according to the manufacturer’s instructions (Multi Sciences BiotechCo., Ltd, Hangzhou, China) or Rh123. Data were obtained and analyzed using a C6 flow cytometer (BD Biosciences, USA).
as §1

HL-60 cells [7] = test: Released cytochrome c level (ELISA); type: cell-based, human; conditions: 3 μM 2a or 2 μM 2b, 24 h
Experimental: HL-60 cells with 3 μM 2a or 2 μM 2b were incubated in a 12-well plate for 24 h. The cells were sacrificed and dealt with ELISA Kit (Meilian BiotechCo., Ltd, Shanghai, China) according to the manufacturer’s instructions. The absorbance was measured at 450 nm with microplate reader.
as §1

Caspase-3 in HL-60 cells = test: Caspase-3 activity (colorimetric, cell extracts); type: cell-based, human
Experimental: HL-60 cells were treated with 3 μM 2a or 2 μM 2b for 12 h in a 6-well plate. Each sample was collected and washed twice with PBS. Then the cells were incubated with moderate lysis buffer from the kit on ice. The cell extract was handled on the basis of manufacturer’s instructions (beyotime, Shanghai, China). After 3 h, the absorbance at 405 nm was measured using a microplate reader.
as §1

normal leukocyte = test: Effect on normal leukocyte (MTT viability and Annexin V-FITC/PI apoptosis); type: cell-based, human; conditions: 3.5 μM 2a, 2.5 μM 2b or 15 μM As2O3 for 6 h, 12 h or 24 h
Experimental: Normal human fresh peripheral blood with EDTA anticoagulant was dealt with Red Blood Cell Lysis Buffer according to manufacturer’s instructions (Beyotime, Shanghai, China) to obtain the normal leukocyte. […] Then, the apoptosis rate using Annexin V-FITC/PI staining and cell viability using MTT method were tested respectively. There are 8 independent normal human fresh peripheral blood samples in all to be tested. This study was carried out in accordance with relevant guidelines and regulations of Wuhan University and the experiment protocol was approved by Zhongnan Hospital of Wuhan University. Additionally, the informed consent was obtained from all subjects.

[8] = Homo sapiens, HL-60, 24 h, read-out: IC50 HL-60
[9] = Homo sapiens, HEK293, read-out: IC50 HEK293
[10] = Mus musculus, NIH3T3, read-out: IC50 NIH3T3
[11] = 3 μM 2a or 2 μM 2b alone, 24 h (Fig. 2a, Fig. 6c)
[12] = 3 μM 2a or 2 μM 2b alone, 24 h, LA experiment (Fig. 6d)
[13] = 3 μM 2a or 2 μM 2b with 0.075 mM LA pre-incubating, 24 h
[14] = 3 μM 2a or 2 μM 2b with 2 mM NAC, 24 h
[15] = 3 μM 2a or 2 μM 2b, 24 h (Fig. 2a)
[16] = 3 μM 2a or 2 μM 2b after pre-adding 0.075 mM LA
[17] = 3 μM 2a or 2 μM 2b, 24 h (Fig. 5b), control 30.8%
[18] = 3 μM 2a or 2 μM 2b alone, 24 h, 12 h (method)
[19] = 3 μM 2a or 2 μM 2b with 0.075 mM LA

Compound	IC50 (HL-60 cells [1]; [8])	IC50 (MCF-7 cells; Homo sapiens, MCF7, 24 h)	IC50 (SGC7901 cells; Homo sapiens, SGC-7901, 24 h)	IC50 (GES-1 cells; Homo sapiens, GES1, 24 h)	concentration that could kill the majority of HL-60 cells (HL-60 cells [1])	IC50 (HEK293 cells; [9])	IC50 (NIH3T3 cells; [10])	apoptosis rate (FITC+/PI− and FITC+/PI+) (HL-60 cells [2]; 1.5 μM 2a or 1 μM 2b, 24 h)	Q1-LL live (normal) cells (HL-60 cells [2]; [11])	apoptosis rate (HL-60 cells [2]; [12])	apoptosis rate (HL-60 cells [2]; [13])	Q1-LL live (normal) cells (HL-60 cells [2]; [14])	apoptosis rate (FITC+/PI− and FITC+/PI+) (HL-60 cells [2]; [15])	morphology changes (Hoechst 33342 fluorescence) (HL-60 cells [3])	relative fluorescence intensity of DCF (ROS) versus control (HL-60 cells [4])	ROS level with antioxidant (HL-60 cells [4]; 0.075 mM LA pre-incubated 4 h)	ROS level with antioxidant (HL-60 cells [4]; 1 mM DTT pre-incubated 4 h)	ROS level with antioxidant (HL-60 cells [4]; 1 mM VC pre-incubated 4 h)	ROS level with antioxidant (HL-60 cells [4]; 2 mM NAC pre-incubated 4 h)	ROS level with antioxidant (HL-60 cells [4]; pretreated with GSH)	other results
Oc1ccccc1C=Nc1ccccc1 [Compound 1a, 2-((phenylimino)methyl) phenol, reference compound]	> 100 µM	> 100 µM	> 100 µM	> 100 µM																	
COc1cc(C=Nc2ccc([As]=O)cc2)ccc1O (centres unmarked) [Compound 2b, 2-methoxy-4-(((4-(oxoarsanyl)phenyl)imino)methyl)phenol]	0.51 ± 0.1 µM	2.81 ± 1.34 µM	2.12 ± 0.48 µM	1.57 ± 0.26 µM	less than 1 μM	2.29 ± 0.34 µM	2.72 ± 0.64 µM	10.7%	34.4%	86.1%	11.7%	92.1%	65.3%	cell nuclear shrinkage and DNA incision	doubled approximately	scavenging ROS completely	eliminate the majority of ROS	eliminate the majority of ROS	removed completely	began to decrease by a concentration-dependent way	content of intracellular total GSH (HL-60 cells [5]; 24 h): decreased significantly; content of intracellular total GSH (HL-60 cells [5]; pretreatment with 0.075 mM LA): could recover the content; ratio of GSH/GSSG (HL-60 cells [5]): showed the similar variation trend; intensity of Rh123 (mitochondrial membrane potential) (HL-60 cells [6]; 3 μM 2a or 2 μM 2b): drop obviously; intensity of Rh123 (mitochondrial membrane potential) (HL-60 cells [6]; [16]): recovered to some extent; proportion of mitochondrial membrane potential collapse (P2, JC-1) (HL-60 cells [6]; 3 μM 2a or 2 μM 2b with 0.075 mM LA pre-incubation (Fig. 5b)): ~12%; proportion of mitochondrial membrane potential collapse (P2, JC-1) (HL-60 cells [6]; [17]): 78.5%; relative content of cytochrome c versus control (HL-60 cells [7]): five times; activity of Caspase-3 (Caspase-3 in HL-60 cells; [18]): enhanced; activity of Caspase-3 (Caspase-3 in HL-60 cells; [19]): could be deterred by 0.075 mM LA; influence on normal leukocyte (cell viability, apoptosis) versus control (normal leukocyte): no more influence on normal leukocyte than control
O=[As]O [NaAsO2, reference compound]																					IC50 (HL-60 cells [1]; read-out: IC50 HL-60): 10.6 ± 3.06 µM; IC50 (MCF-7 cells): 31.7 ± 0.67 µM; IC50 (SGC7901 cells): 59 ± 11.8 µM; IC50 (GES-1 cells): 42.6 ± 11.6 µM; IC50 (HEK293 cells; read-out: IC50 HEK293): 14.6 ± 0.61 µM; IC50 (NIH3T3 cells; read-out: IC50 NIH3T3): 10.8 ± 1.66 µM
O=[As]c1ccc(N=Cc2c3ccccc3cc3ccccc23)cc1 (centres unmarked) [Compound 4a, 1-(anthracen-9-yl)-N-(4-(oxoarsanyl)phenyl) methanimine]	15.9 ± 0.56 µM	11.3 ± 3.4 µM	7.63 ± 3.02 µM	8.72 ± 3.76 µM																	IC50 (HL-60 cells [1]; Homo sapiens, HL-60, read-out: half inhibitory concentration (IC50) for HL-60 cells): > 10 µM; melting point: 91 to 92 °C
O=[As]c1ccc(N=Cc2ccccc2O)cc1 (centres unmarked) [Compound 2a, 2-(((4-(oxoarsanyl)phenyl)imino)methyl)phenol]	0.77 ± 0.1 µM	2.53 ± 0.41 µM	4.03 ± 0.89 µM	5.96 ± 1.23 µM	less than 1 μM	4.36 ± 0.62 µM	7.43 ± 0.37 µM	9.3%	44.3%	55.7%	11.4%	86.6%	55.5%	cell nuclear shrinkage and DNA incision	doubled approximately	scavenging ROS completely	scavenge additional ROS completely	decrease the level of ROS to that of control	scavenge additional ROS completely	began to decrease by a concentration-dependent way	content of intracellular total GSH (HL-60 cells [5]; 24 h): decreased significantly; content of intracellular total GSH (HL-60 cells [5]; pretreatment with 0.075 mM LA): could recover the content; ratio of GSH/GSSG (HL-60 cells [5]): showed the similar variation trend; intensity of Rh123 (mitochondrial membrane potential) (HL-60 cells [6]; 3 μM 2a or 2 μM 2b): drop obviously; intensity of Rh123 (mitochondrial membrane potential) (HL-60 cells [6]; [16]): recovered to some extent; proportion of mitochondrial membrane potential collapse (P2, JC-1) (HL-60 cells [6]; [17]): 68.3%; relative content of cytochrome c versus control (HL-60 cells [7]): approximately six times; activity of Caspase-3 (Caspase-3 in HL-60 cells; [18]): enhanced; activity of Caspase-3 (Caspase-3 in HL-60 cells; [19]): could be deterred by 0.075 mM LA; influence on normal leukocyte (cell viability, apoptosis) versus control (normal leukocyte): no more influence on normal leukocyte than control
